Legend:
[1] = Macromer viscosity; assay type: physicochemical
Description: Further described is a method of preparing a polyHIPE. In one form the polyHIPE is prepared with a biodegradable fumerate having ester linkages. One example is PFDMA. The method further comprises a two-step process. The first step produced an intermediate molecule as a diester intermediate. In one form the intermediate was bis-(1,2-hydroxypropyl)fumarate (FIG. 1A). The intermediate was then functionalized with methacrylate endgroups (FIG. 1B). With purification, the structure of the resulting formed material, PFDMA, was confirmed with ^1H NMR, as represented in FIG. 2. Integration ratio of methacryloyl protons to fumarate protons in the ^1H NMR spectra was confirmed and the formed structure was, in this example, a PFDMA as a single fumarate unit with two terminal methacrylate groups. The average functionalization was calculated to be greater than 80%. In some embodiments, functionalization was calculated to be at or about 83%. The methacrylate and fumarate groups provided sites for radical crosslinking as further described below. It is, in part, the crosslinking as described herein that allows cure of the HIPE at physiological temperatures.

[2] = tested on: human mesenchymal stem cells (hMSCs); assay: hMSC adhesion and spreading on scaffolds and films; assay type: cell-based; conditions: polyHIPE scaffolds fabricated with PGPR, AIBN initiated, between 3 and 24 hours after seeding
Description: For three-dimensional scaffolds described herein, the behavior of the surfactant may be further modified to improve cell adhesion to the scaffold of cells, such as fibroblasts, mesenchymal stem cells, osteoblasts, chondrocytes, and other matrix formed cells. […] PolyHIPEs were prepared with PGPR and initiated with AIBN. When cured, as previously described, samples were sectioned using a precision diamond wafering saw. Prior to seeding with human mesenchymal stem cells (hMSCs), the polyHIPEs samples were soaked in 70% ethanol to sterilize, subjected to a wetting ladder to increase aqueous solution penetration, and incubated overnight in medium enhanced with 40 wt. % fetal bovine serum (FBS). The scaffolds were then seeded at a concentration of about 2×10^3 and 10×10^3 cells/cm^2. On scaffolds fabricated with PGPR, hMSC adhesion and spreading declined when measured between 3 and 24 hours after seeding. It was hypothesized that PGPR may be affecting protein adsorption and/or their conformation when attempting to localize on the polyHIPE scaffold. This was further analyzed on PFDMA films prepared with and without PGPR. The effect of PGPR on protein adsorption and/or conformation was confirmed at 24 hours, in which hMSC adhesion and spreading decreased on PGPR-PFDMA film specimens as compared with control (PFDMA alone) specimens. […]

[3] = tested on: cells; assay: Cytocompatibility of cells after addition of surfactant PGPR; assay type: cell-based; conditions: concentrations that permit emulsification (0.1, 1.0 or 5 wt. %)
From the text: FIG. 3C depicts cytocompability of cells after addition of the surfactant, PGPR, at 0.1 wt. %, 1.0 wt. % or 5 wt. %;

[4] = tested on: human mesenchymal stem cells; assay: Cell viability with scaffold samples introduced into the medium; assay type: cell-based; conditions: scaffold prepared with 5 wt. % initiator in the medium, after 72 hours
Description: Said initiators are typically those with decomposition temperature ranging from between about 25 to about 100° C. Examples include but are not limited to azobis-isobutyronitrile (AIBN) and benzoyl peroxide (BPO). Preliminary tack-free time studies of polyHIPE emulsions prepared with 5 wt. % AIBN or BPO indicated a […] cure time compared with emulsions prepared with 5 wt. % ammonium persulfate. The time to cure was about 7-12 hours with an ammonium persulfate initiator (aqueous phase free radical initiator) as compared with about 1.5 hours with the AIBN or BPO (organic soluble free radical initiator).

## propylene fumarate dimethacrylate [PFDMA]
[1]
  viscosity: about 125 cP

## polyglycerol polyricinoleate [PGPR 4125]
[2]
  hMSC adhesion and spreading on scaffolds: declined
[3]
  cytocompatibility with cells: cytocompatible

## CC(C)(C#N)N=NC(C)(C)C#N [AIBN, azobis-isobutyronitrile]
[4]
  effect on cell viability: Neither 5 wt. % AIBN or 5 wt. % BPO appeared to greatly effect cell viability

## O=C(OOC(=O)c1ccccc1)c1ccccc1 [BPO, benzoyl peroxide]
[4]
  effect on cell viability: Neither 5 wt. % AIBN or 5 wt. % BPO appeared to greatly effect cell viability
